# Laboratory results: patent US12263248B2, “Compounds and compositions for intracellular delivery of therapeutic agents” (ModernaTX, Inc., priority 2018, dated 2025)
# Legend:
# hEPO mRNA = assay: Pretreatment study in Cynomolgus monkeys (standard MC3 formulation, hEPO mRNA); format: in vivo; details: once weekly for four weeks, absence of any pretreatment
# Experimental: The effects of pretreatment to non-human primates were evaluated using a standard MC3 formulation including an mRNA encoding hEPO. Male monkeys were administered the nanoparticle composition once weekly for four weeks at a dose rate of 5 ml/kg/h and were pretreated with either methotrexate or dexamethasone.
# As shown, in the absence of any pretreatment, maximal expression levels decreased nearly 70% over the course of the study.
# [1] = MC3 single cell necrosis in rat liver and liver enzymes; format: in vivo, rats; details: rat liver
# Experimental: FIG. 37 is a series of graphs illustrating MC3 single cell necrosis in rat liver and liver enzyme. The top row is a pair of images of livers of rats administered with 0.3 mg/kg of a […] (LNP) not containing an mRNA (right) and PBS (phosphate buffered saline) as a control (left). The bottom row is a pair of graphs showing expression of ALT (left) and AST(right) in the liver following administration of a 0.3 mg/kg of a MC3-based LNP containing an mRNA.
# [2] = tested on: ApoE-mediated LDLr dependent uptake; assay: Expression in ApoE knockout mice and LDLr knockout mice; details: mouse, in vivo
# IL-6, MCP-1 = assay: Cytokine induction in non-human primates; format: in vivo, Cynomolgus monkeys
# Experimental: The tolerability and efficacy of nanoparticle compositions to non-human primates was also investigated using a sample formulation including Compound 18. The formulation was prepared according to the standard MC3 formulation described above and included an hEPO mRNA. Primates were administered a single dose of 0.05 (Group 1), 0.3 (Group 2), or 1.0 (Group 3) mpk via intravenous infusion for 60 minutes. Three primates were administered each dose. Expression of hEPO was measured prior to dosing and at 2, 6, 24, 48, and 96 hours post-treatment (Table 26). Table 28 includes levels of indicators of complement activation, while Table 29 includes cytokine induction data.
# hEPO ELISA for NHP samples: Human Epo levels were measured using a human erythropoietin immunoassay. Cytokines levels were measured using a non-human primate cytokine kit.
# [3] = 0.3 mg/kg of MC3-based LNP containing an mRNA
smiles,measurement,setting,value
"CCCCC/C=C\C/C=C\CCCCCCCCC(CCCCCCCC/C=C\C/C=C\CCCCC)OC(=O)CCCN(C)C [MC3, DLin-MC3-DMA, reference compound]",decrease of maximal expression levels over the course of the study,hEPO mRNA,~70%
same,pathology,[1]; 0.3 mg/kg MC3-based LNP,evidence of necrosis
same,ALT,[1]; [3],elevated
same,AST,[1]; [3],elevated
"CCCCCCCCCOC(=O)CCCCCCCN(CCO)CCCCCCCC(=O)OC(CCCCCCCC)CCCCCCCC [Compound 18, Heptadecan-9-yl 8-((2-hydroxyethyl)(8-(nonyloxy)-8-oxooctyl)amino)octanoate]",expression in ApoE knockout mice and LDLr knockout mice,[2],almost complete loss in expression
same,IFNg,"IL-6, MCP-1; 0.05 mpk, 2 h",18.8 pg/mL
same,IFNα,"IL-6, MCP-1; 0.05 mpk, 2 h",18.8 pg/mL
same,IL-1b,"IL-6, MCP-1; 0.05 mpk, 2 h",18.8 pg/mL
same,IL-6,"IL-6, MCP-1; 0.05 mpk, 2 h",18.8 pg/mL
same,MCP-1,"IL-6, MCP-1; 0.05 mpk, 2 h",342 pg/mL
same,TNF-α,"IL-6, MCP-1; 0.05 mpk, 2 h",18.8 pg/mL
same,IFNg,"IL-6, MCP-1; 0.05 mpk, 6 h",18.8 pg/mL
same,IFNα,"IL-6, MCP-1; 0.05 mpk, 6 h",18.8 pg/mL
same,IL-1b,"IL-6, MCP-1; 0.05 mpk, 6 h",18.8 pg/mL
same,IL-6,"IL-6, MCP-1; 0.05 mpk, 6 h",18.8 pg/mL
same,MCP-1,"IL-6, MCP-1; 0.05 mpk, 6 h",543 pg/mL
same,TNF-α,"IL-6, MCP-1; 0.05 mpk, 6 h",41.5 pg/mL
same,IFNg,"IL-6, MCP-1; 0.05 mpk, 24 h",18.8 pg/mL
same,IFNα,"IL-6, MCP-1; 0.05 mpk, 24 h",18.8 pg/mL
same,IL-1b,"IL-6, MCP-1; 0.05 mpk, 24 h",18.8 pg/mL
same,IL-6,"IL-6, MCP-1; 0.05 mpk, 24 h",18.8 pg/mL
same,MCP-1,"IL-6, MCP-1; 0.05 mpk, 24 h",236 pg/mL
same,TNF-α,"IL-6, MCP-1; 0.05 mpk, 24 h",17.6 pg/mL
same,IFNg,"IL-6, MCP-1; 0.05 mpk, Day 5",39.3 pg/mL
same,IFNα,"IL-6, MCP-1; 0.05 mpk, Day 5",18.8 pg/mL
same,IL-1b,"IL-6, MCP-1; 0.05 mpk, Day 5",18.8 pg/mL
same,IL-6,"IL-6, MCP-1; 0.05 mpk, Day 5",18.8 pg/mL
same,MCP-1,"IL-6, MCP-1; 0.05 mpk, Day 5",232 pg/mL
same,TNF-α,"IL-6, MCP-1; 0.05 mpk, Day 5",63.5 pg/mL
same,IFNg,"IL-6, MCP-1; 0.05 mpk, Predose",18.8 pg/mL
same,IFNα,"IL-6, MCP-1; 0.05 mpk, Predose",18.8 pg/mL
same,IL-1b,"IL-6, MCP-1; 0.05 mpk, Predose",18.8 pg/mL
same,IL-6,"IL-6, MCP-1; 0.05 mpk, Predose",18.8 pg/mL
same,MCP-1,"IL-6, MCP-1; 0.05 mpk, Predose",192 pg/mL
same,TNF-α,"IL-6, MCP-1; 0.05 mpk, Predose",18.8 pg/mL
same,IFNg,"IL-6, MCP-1; 0.3 mpk, 2 h",18.8 pg/mL
same,IFNα,"IL-6, MCP-1; 0.3 mpk, 2 h",18.8 pg/mL
same,IL-1b,"IL-6, MCP-1; 0.3 mpk, 2 h",18.8 pg/mL
same,IL-6,"IL-6, MCP-1; 0.3 mpk, 2 h",191 pg/mL
same,MCP-1,"IL-6, MCP-1; 0.3 mpk, 2 h",3018 pg/mL
same,TNF-α,"IL-6, MCP-1; 0.3 mpk, 2 h",38.2 pg/mL
same,IFNg,"IL-6, MCP-1; 0.3 mpk, 6 h",18.8 pg/mL
same,IFNα,"IL-6, MCP-1; 0.3 mpk, 6 h",18.8 pg/mL
same,IL-1b,"IL-6, MCP-1; 0.3 mpk, 6 h",18.8 pg/mL
same,IL-6,"IL-6, MCP-1; 0.3 mpk, 6 h",33.0 pg/mL
same,MCP-1,"IL-6, MCP-1; 0.3 mpk, 6 h",2011 pg/mL
same,TNF-α,"IL-6, MCP-1; 0.3 mpk, 6 h",32.5 pg/mL
same,IFNg,"IL-6, MCP-1; 0.3 mpk, 24 h",18.8 pg/mL
same,IFNα,"IL-6, MCP-1; 0.3 mpk, 24 h",18.8 pg/mL
same,IL-1b,"IL-6, MCP-1; 0.3 mpk, 24 h",18.8 pg/mL
same,IL-6,"IL-6, MCP-1; 0.3 mpk, 24 h",18.8 pg/mL
same,MCP-1,"IL-6, MCP-1; 0.3 mpk, 24 h",404 pg/mL
same,TNF-α,"IL-6, MCP-1; 0.3 mpk, 24 h",59.6 pg/mL
same,IFNg,"IL-6, MCP-1; 0.3 mpk, Day 5",18.8 pg/mL
same,IFNα,"IL-6, MCP-1; 0.3 mpk, Day 5",18.8 pg/mL
same,IL-1b,"IL-6, MCP-1; 0.3 mpk, Day 5",18.8 pg/mL
same,IL-6,"IL-6, MCP-1; 0.3 mpk, Day 5",18.8 pg/mL
same,MCP-1,"IL-6, MCP-1; 0.3 mpk, Day 5",211 pg/mL
same,TNF-α,"IL-6, MCP-1; 0.3 mpk, Day 5",18.8 pg/mL
same,IFNg,"IL-6, MCP-1; 0.3 mpk, Predose",18.8 pg/mL
same,IFNα,"IL-6, MCP-1; 0.3 mpk, Predose",18.8 pg/mL
same,IL-1b,"IL-6, MCP-1; 0.3 mpk, Predose",18.8 pg/mL
same,IL-6,"IL-6, MCP-1; 0.3 mpk, Predose",18.8 pg/mL
same,MCP-1,"IL-6, MCP-1; 0.3 mpk, Predose",168 pg/mL
same,TNF-α,"IL-6, MCP-1; 0.3 mpk, Predose",18.8 pg/mL
same,IFNg,"IL-6, MCP-1; 1.0 mpk, 2 h",35.8 pg/mL
same,IFNα,"IL-6, MCP-1; 1.0 mpk, 2 h",18.8 pg/mL
same,IL-1b,"IL-6, MCP-1; 1.0 mpk, 2 h",33.4 pg/mL
same,IL-6,"IL-6, MCP-1; 1.0 mpk, 2 h",834 pg/mL
same,MCP-1,"IL-6, MCP-1; 1.0 mpk, 2 h",4221 pg/mL
same,TNF-α,"IL-6, MCP-1; 1.0 mpk, 2 h",18.8 pg/mL
same,IFNg,"IL-6, MCP-1; 1.0 mpk, 6 h",38.9 pg/mL
same,IFNα,"IL-6, MCP-1; 1.0 mpk, 6 h",18.8 pg/mL
same,IL-1b,"IL-6, MCP-1; 1.0 mpk, 6 h",18.8 pg/mL
same,IL-6,"IL-6, MCP-1; 1.0 mpk, 6 h",398 pg/mL
same,MCP-1,"IL-6, MCP-1; 1.0 mpk, 6 h",3945 pg/mL
same,TNF-α,"IL-6, MCP-1; 1.0 mpk, 6 h",18.8 pg/mL
same,IFNg,"IL-6, MCP-1; 1.0 mpk, 24 h",18.8 pg/mL
same,IFNα,"IL-6, MCP-1; 1.0 mpk, 24 h",18.8 pg/mL
same,IL-1b,"IL-6, MCP-1; 1.0 mpk, 24 h",18.8 pg/mL
same,IL-6,"IL-6, MCP-1; 1.0 mpk, 24 h",31.4 pg/mL
same,MCP-1,"IL-6, MCP-1; 1.0 mpk, 24 h",1444 pg/mL
same,TNF-α,"IL-6, MCP-1; 1.0 mpk, 24 h",46.2 pg/mL
same,IFNg,"IL-6, MCP-1; 1.0 mpk, Day 5",18.8 pg/mL
same,IFNα,"IL-6, MCP-1; 1.0 mpk, Day 5",18.8 pg/mL
same,IL-1b,"IL-6, MCP-1; 1.0 mpk, Day 5",18.8 pg/mL
same,IL-6,"IL-6, MCP-1; 1.0 mpk, Day 5",18.8 pg/mL
same,MCP-1,"IL-6, MCP-1; 1.0 mpk, Day 5",225 pg/mL
same,TNF-α,"IL-6, MCP-1; 1.0 mpk, Day 5",41.9 pg/mL
same,IFNg,"IL-6, MCP-1; 1.0 mpk, Predose",18.8 pg/mL
same,IFNα,"IL-6, MCP-1; 1.0 mpk, Predose",18.8 pg/mL
same,IL-1b,"IL-6, MCP-1; 1.0 mpk, Predose",18.8 pg/mL
same,IL-6,"IL-6, MCP-1; 1.0 mpk, Predose",18.8 pg/mL
same,MCP-1,"IL-6, MCP-1; 1.0 mpk, Predose",235 pg/mL
same,TNF-α,"IL-6, MCP-1; 1.0 mpk, Predose",18.8 pg/mL
